Measurements taken from publication PMC9668830, “Identification of fungal lignocellulose-degrading biocatalysts secreted by Phanerochaete chrysosporium via activity-based protein profiling” (Communications Biology, 2022).

What was measured:
WP_074995790 = molecular target: T1, WP_074995790 (Streptomyces misionensis, UniProt A0A1H5HEE9); test: pNP release at […] nm; type: biochemical; conditions: 200 µM substrate, phosphate citrate buffer; only specific activity reported
T1 construct: gene SAMN04490357_7452; synthetic gene without secretion signal, pET20b, C-terminal His-tag, E. coli Rosetta DE3, Ni-IDA purified
T1 sequence (A0A1H5HEE9 63-752): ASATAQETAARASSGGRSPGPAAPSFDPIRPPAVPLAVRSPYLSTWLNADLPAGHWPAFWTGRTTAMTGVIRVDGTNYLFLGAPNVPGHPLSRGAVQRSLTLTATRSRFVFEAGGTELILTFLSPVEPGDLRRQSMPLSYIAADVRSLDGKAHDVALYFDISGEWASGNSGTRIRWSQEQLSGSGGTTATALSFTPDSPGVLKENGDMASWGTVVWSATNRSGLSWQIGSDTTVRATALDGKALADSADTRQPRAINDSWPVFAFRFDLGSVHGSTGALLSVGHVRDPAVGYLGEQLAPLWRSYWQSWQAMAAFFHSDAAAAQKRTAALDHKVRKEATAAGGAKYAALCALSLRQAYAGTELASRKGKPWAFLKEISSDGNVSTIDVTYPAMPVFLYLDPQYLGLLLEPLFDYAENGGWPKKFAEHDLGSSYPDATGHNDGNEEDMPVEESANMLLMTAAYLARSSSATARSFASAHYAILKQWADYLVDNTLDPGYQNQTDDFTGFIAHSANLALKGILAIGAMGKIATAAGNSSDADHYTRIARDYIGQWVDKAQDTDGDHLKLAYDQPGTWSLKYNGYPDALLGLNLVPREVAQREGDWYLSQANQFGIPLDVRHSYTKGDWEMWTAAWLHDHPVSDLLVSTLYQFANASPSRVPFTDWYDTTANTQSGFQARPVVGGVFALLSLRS

Phchr2|2915237 = test system: T2, Phchr2|2915237; test: discontinuous pNP release at […] nm; type: biochemical, Phanerodontia chrysosporium; conditions: phosphate citrate buffer; pH and temperature of the kinetics not restated (optimum pH 5, 60 °C)
T2 construct: gene phchr2_2915237; synthetic gene from JGI model, secreted by Aspergillus oryzae, C-terminal 6xHis tag kept, Ni-purified

Phchr2|126075 = test system: T3, Phchr2|126075; test: continuous pNP release at […] nm, filtered K. lactis culture supernatant; type: biochemical, Phanerodontia chrysosporium; conditions: 50 mM TRIS pH 8, 20 mM KCl, 40 °C
T3 construct: gene phchr2_126075; filtered culture supernatant assayed

Km (Phchr2|2915237) [µM]	Structure (SMILES)	other results
	O=[N+]([O-])c1ccc(O[C@@H]2O[C@H](CO)[C@H](O)[C@H](O)[C@H]2O)cc1 [pNP-Gal]	pNP release at 410 nm (WP_074995790): we were able to detect a weak β-galactosidase activity
1820	O=[N+]([O-])c1ccc(O[C@@H]2O[C@H](CO)[C@@H](O)[C@H](O)[C@H]2O)cc1 [pNP-Glc]	
6980	O=[N+]([O-])c1ccc(O[C@@H]2OC[C@@H](O)[C@H](O)[C@H]2O)cc1 [pNP-Xyl]	
	CC(=O)Oc1ccc([N+](=O)[O-])cc1 [pNP-acetate]	Km (Phchr2|126075): 670 µM
